{"source": "patent US20220184020A1", "about": "“Polyphenols as Modulators of Platelet Function” (Northeastern University, priority 2019, published 2022)", "key": {"platelets": {"test_system": "platelets", "experiment": "Platelet alpha granule secretion (P-selectin surface expression)", "type": "cell-based, human", "conditions": "in response to U46619; RA pre-treatment 1 hour", "method": "To validate the predictive power of the developed framework, direct experimental evidence of the predicted mechanistic role of Rosmarinic acid (RA) in VD was sought. […] Therefore, whether RA influenced platelet activation in vitro was evaluated. As platelets can be stimulated through different activation pathways, RA effects can, in principle, occur in any of them. To test these different possibilities, platelets were pretreated with RA and then activated with: 1) glycoprotein VI by collagen or collagen-related peptide (Collagen/CRPXL); 2) protease-activated receptors-1,4 by thrombin receptor activator peptide-6 (TRAP-6); 3) prostanoid thromboxane receptor by the thromboxane A2 analogue (U46619); and 4) P2Y1/12 receptor stimulation by adenosine diphosphate (ADP). When the network distance between each stimulant receptor and the RA-VD-platelet module (FIG. 11A) was compared, it was observed that the receptors for Collagen/CRPXL, TRAP-6, and U46619 are closer than the random expectation, while the receptor for ADP is more distant (FIG. 11B). It is expected that platelets would be most affected by RA when treated with stimulants whose receptors are most proximal to the RA-VD-platelet module, i.e. Collagen/CRPXL, TRAP-6, and U46619. […] Percent-positive cells were determined by gating on fluorescence intensity compared to unstimulated samples."}, "washed platelets": {"test_system": "washed platelets", "experiment": "Platelet total tyrosine phosphorylation (4G10 immunoblot)", "type": "cell-based, human", "conditions": "in response to CRPXL, TRAP-6 and U46619; RA-treated platelets", "method": "The molecular mechanisms involved in the functional impact of RA on platelets was clarified. The RA target FYN is a protein-tyrosine kinase and platelet activation is coordinated by several kinases that phosphorylate adaptors, enzymes, and cytoskeletal proteins downstream of platelet surface receptors. Given this connection, RA may inhibit platelets function by blocking agonist-induced protein tyrosine phosphorylation.\nHuman blood collection was performed as previously described in accordance with the Declaration of Helsinki and ethics regulations with Institutional Review Board approval from Brigham and Women's Hospital (P001526). […] Citrated whole blood underwent centrifugation with a slow break (177×g, 20 minutes) and the PRP fraction was acquired for subsequent experiments. For washed platelets, PRP was incubated with 1 μM prostaglandin E1 (Sigma, P5515) and immediately underwent centrifugation with a slow break (1000×g, 5 minutes). Platelet-poor plasma was aspirated, and pellets resuspended in platelet resuspension buffer (PRB; 10 mM Hepes, 140 mM NaCl, 3 mM KCl, 0.5 mM MgCl2, 5 mM NaHCO3, 10 mM glucose, pH 7.4).\nWashed platelets were pre-treated with RA for 1 hour, followed by agonist stimulation for 10 minutes. Platelets were lysed on ice with RIPA Lysis Buffer System® (Santa Cruz®, sc-24948) and sample supernatants clarified via centrifugation (14,000 rpm, 5 min, 4° C.). […]"}, "A549": {"test_system": "A549", "conditions": "A549 after treatment with RA; versus all other genes; cited from earlier work"}}}
{"compound": "O=C(/C=C/c1ccc(O)c(O)c1)O[C@H](Cc1ccc(O)c(O)c1)C(=O)O", "note": "[rosmarinic acid]", "values": [{"measurement": "alpha granule secretion", "setting": "platelets", "result": "dampened"}, {"measurement": "total tyrosine phosphorylation", "setting": "washed platelets", "result": "dose-dependent reduction"}, {"measurement": "perturbation scores for genes directly regulated by NFE2L2", "setting": "A549", "result": "higher perturbation scores"}]}
